Measured values: ChEMBL document CHEMBL4627246, “Pyroglutamide-Based P2X7 Receptor Antagonists Targeting Inflammatory Bowel Disease” (J Med Chem, 2020)

What was measured:
Assay type in all cases: cell-based
[1] = tested on: TK-10; experiment: Cytotoxicity against human TK10 cells assessed as effect on cell growth at 10 uM incubated for 48 hrs by sulforhodamine B assay; details: tk-10, 48 h
[2] = tested on: OVCAR-5; experiment: Cytotoxicity against human OVCAR5 cells assessed as effect on cell growth at 10 uM incubated for 48 hrs by sulforhodamine B assay; details: ovcar-5, 48 h
[3] = tested on: SF-268; experiment: Cytotoxicity against human SF268 cells assessed as effect on cell growth at 10 uM incubated for 48 hrs by sulforhodamine B assay; details: sf-268, 48 h
[4] = tested on: PC-3; experiment: Cytotoxicity against human PC3 cells assessed as effect on cell growth at 10 uM incubated for 48 hrs by sulforhodamine B assay; details: pc-3, 48 h
[5] = tested on: SK-OV-3; experiment: Cytotoxicity against human SKOV3 cells assessed as effect on cell growth at 10 uM incubated for 48 hrs by sulforhodamine B assay; details: sk-ov-3, 48 h
[6] = tested on: SK-MEL-5; experiment: Cytotoxicity against human SK-MEL-5 cells assessed as effect on cell growth at 10 uM incubated for 48 hrs by sulforhodamine B assay; details: sk-mel-5, 48 h
[7] = tested on: SW-620; experiment: Cytotoxicity against human SW620 cells assessed as effect on cell growth at 10 uM incubated for 48 hrs by sulforhodamine B assay; details: sw-620, 48 h
[8] = tested on: NCI-H226; experiment: Cytotoxicity against human NCI-H226 cells assessed as effect on cell growth at 10 uM incubated for 48 hrs by sulforhodamine B assay; details: nci-h226, 48 h
[9] = tested on: NCI-H522; experiment: Cytotoxicity against human NCI-H522 cells assessed as effect on cell growth at 10 uM incubated for 48 hrs by sulforhodamine B assay; details: nci-h522, 48 h
[10] = tested on: 786-0; experiment: Cytotoxicity against human 786-0 cells assessed as effect on cell growth at 10 uM incubated for 48 hrs by sulforhodamine B assay; details: 786-0, 48 h
[11] = tested on: SNB-19; experiment: Cytotoxicity against human SNB19 cells assessed as effect on cell growth at 10 uM incubated for 48 hrs by sulforhodamine B assay; details: snb-19, 48 h
[12] = tested on: EKVX; experiment: Cytotoxicity against human EKVX cells assessed as effect on cell growth at 10 uM incubated for 48 hrs by sulforhodamine B assay
[13] = tested on: UACC-257; experiment: Cytotoxicity against human UACC257 cells assessed as effect on cell growth at 10 uM incubated for 48 hrs by sulforhodamine B assay; details: uacc-257, 48 h
[14] = tested on: HL-60(TB); experiment: Cytotoxicity against human HL-60(TB) cells assessed as effect on cell growth at 10 uM incubated for 48 hrs by sulforhodamine B assay
[15] = tested on: LOX IMVI; experiment: Cytotoxicity against human LOXIMVI cells assessed as effect on cell growth at 10 uM incubated for 48 hrs by sulforhodamine B assay
[16] = tested on: SN12C; experiment: Cytotoxicity against human SN12C cells assessed as effect on cell growth at 10 uM incubated for 48 hrs by sulforhodamine B assay
[17] = tested on: SR; experiment: Cytotoxicity against human SR cells assessed as effect on cell growth at 10 uM incubated for 48 hrs by sulforhodamine B assay
[18] = tested on: HOP-92; experiment: Cytotoxicity against human HOP92 cells assessed as effect on cell growth at 10 uM incubated for 48 hrs by sulforhodamine B assay; details: hop-92, 48 h
[19] = tested on: MOLT-4; experiment: Cytotoxicity against human MOLT4 cells assessed as effect on cell growth at 10 uM incubated for 48 hrs by sulforhodamine B assay; details: molt-4, 48 h
[20] = tested on: NCI-H23; experiment: Cytotoxicity against human NCI-H23 cells assessed as effect on cell growth at 10 uM incubated for 48 hrs by sulforhodamine B assay; details: nci-h23, 48 h

Measured: Activity

O=C(NCc1ccc(Cl)cc1Cl)[C@@H]1CCC(=O)N1C(c1ccccc1)c1ccccc1
Non-Toxic: [1] | [2] | [3] | [4] | [5] | [6] | [7] | [8] | [9] | [10] | [11] | [12] | [13] | [14] | [15] | [16] | [17] | [18] | [19] | [20]

COc1ccc(N2C(=O)[C@@H]3C/C(=C\N(C)C)C(=O)N3C2N(C)C)cc1 (stereo not given in full)
Non-Toxic: [1] | [2] | [3] | [4] | [5] | [6] | [7] | [8] | [9] | [10] | [11] | [12] | [13] | [14] | [15] | [16] | [17] | [18] | [19] | [20]

COc1ccc(NC(=O)[C@@H]2C/C(=C\N(C)C)C(=O)N2)cc1
Non-Toxic: [1] | [2] | [3] | [4] | [5] | [6] | [7] | [8] | [9] | [10] | [11] | [12] | [13] | [14] | [15] | [16] | [17] | [18] | [19] | [20]

O=C(NCc1ccccc1Cl)[C@@H]1CCC(=O)N1Cc1ccccc1Cl
Non-Toxic: [1] | [2] | [3] | [4] | [5] | [6] | [7] | [8] | [9] | [10] | [11] | [12] | [13] | [14] | [15] | [16] | [17] | [18] | [19] | [20]

O=C1CCCC(C(=O)NCc2ccc(Cl)cc2Cl)N1 (stereo not given)
Non-Toxic: [1] | [2] | [3] | [4] | [5] | [6] | [7] | [8] | [9] | [10] | [11] | [12] | [13] | [14] | [15] | [16] | [17] | [18] | [19] | [20]

O=C(NCc1ccccc1)[C@@H]1CCC(=O)N1Cc1ccc(Cl)cc1Cl
Non-Toxic: [1] | [2] | [3] | [4] | [5] | [6] | [7] | [8] | [9] | [10] | [11] | [12] | [13] | [14] | [15] | [16] | [17] | [18] | [19] | [20]

O=C1N[C@H](C(=O)NCc2ccc(Cl)cc2Cl)CO1
Non-Toxic: [1] | [2] | [3] | [4] | [5] | [6] | [7] | [8] | [9] | [10] | [11] | [12] | [13] | [14] | [15] | [16] | [17] | [18] | [19] | [20]

O=C1N[C@H](C(=O)NCc2ccc(Cl)cc2Cl)C/C1=C\N1CCOCC1
Non-Toxic: [1] | [2] | [3] | [4] | [5] | [6] | [7] | [8] | [9] | [10] | [11] | [12] | [13] | [14] | [15] | [16] | [17] | [18] | [19] | [20]

COc1ccccc1CN1C(=O)[C@@H]2C/C(=C\N(C)C)C(=O)N2C1N(C)C (stereo not given in full)
Non-Toxic: [1] | [2] | [3] | [4] | [5] | [6] | [7] | [8] | [9] | [10] | [11] | [12] | [13] | [14] | [15] | [16] | [17] | [18] | [19] | [20]

N#Cc1ccc(N2C(=O)CC[C@H]2C(=O)NCc2ccc(Cl)cc2Cl)cc1
Non-Toxic: [1] | [2] | [3] | [4] | [5] | [6] | [7] | [8] | [9] | [10] | [11] | [12] | [13] | [14] | [15] | [16] | [17] | [18] | [19] | [20]

COc1cc(CN/C=C2\C[C@@H](C(=O)NCc3ccc(Cl)cc3Cl)NC2=O)cc(OC)c1OC
Non-Toxic: [1] | [2] | [3] | [4] | [5] | [6] | [7] | [8] | [9] | [10] | [11] | [12] | [13] | [14] | [15] | [16] | [17] | [18] | [19] | [20]

O=C(NCC1CCCCC1)[C@@H]1CCC(=O)N1c1ccccc1
Non-Toxic: [1] | [2] | [3] | [4] | [5] | [6] | [7] | [8] | [9] | [10] | [11] | [12] | [13] | [14] | [15] | [16] | [17] | [18] | [19] | [20]

COc1ccc(CN2C(=O)[C@@H]3C/C(=C\N(C)C)C(=O)N3C2N(C)C)c(OC)c1 (stereo not given in full)
Non-Toxic: [1] | [2] | [3] | [4] | [5] | [6] | [7] | [8] | [9] | [10] | [11] | [12] | [13] | [14] | [15] | [16] | [17] | [18] | [19] | [20]

O=C(NCc1ccc(Cl)cc1Cl)[C@@H]1CCC(=O)N1C(c1ccc(Cl)cc1)c1ccc(Cl)cc1
Non-Toxic: [1] | [2] | [3] | [4] | [5] | [6] | [7] | [8] | [9] | [10] | [11] | [12] | [13] | [14] | [15] | [16] | [17] | [18] | [19] | [20]
